Two compounds from ChEMBL document CHEMBL3758169, “4-Aminoindazolyl-dihydrofuro[3,4-d]pyrimidines as non-covalent inhibitors of mutant epidermal growth factor receptor tyrosine kinase” (Bioorg Med Chem Lett, 2016) can be followed below.

The subject of one data set is Hepatocyte. Briefly: Drug metabolism in human hepatocytes assessed as glucuronidation. Format: ADME, cell-based.
The target of data set [1] is Tyrosine-protein kinase Lyn (Homo sapiens) (UniProt P07948). Briefly: Inhibition of LYNB (unknown origin) at 100 nM.
For data set [2], the target named is Mitogen-activated protein kinase kinase kinase kinase 4 (Homo sapiens) (UniProt O95819). As to the kind of experiment: Inhibition of MAP4K4 (unknown origin) at 100 nM.
The target of data set [3] is Serine/threonine-protein kinase MARK1 (Homo sapiens) (UniProt Q9P0L2). As to the kind of experiment: Inhibition of MARK1 (unknown origin) at 100 nM.
Data set [4] concerns the target Dual specificity mitogen-activated protein kinase kinase 6 (Homo sapiens) (UniProt P52564). Briefly: Inhibition of MKK6 (unknown origin) at 100 nM.
Data set [5] concerns the target Serine/threonine-protein kinase 4 (Homo sapiens) (UniProt Q13043). Briefly: Inhibition of MST1 (unknown origin) at 100 nM.
Data set [6] addresses Serine/threonine-protein kinase 24 (Homo sapiens) (UniProt Q9Y6E0). As to the kind of experiment: Inhibition of MST3 (unknown origin) at 100 nM.
In data set [7] the target is Serine/threonine-protein kinase Nek6 (Homo sapiens) (UniProt Q9HC98). As to the kind of experiment: Inhibition of NEK6 (unknown origin) at 100 nM.
In data set [8] the target is Serine/threonine-protein kinase Nek7 (Homo sapiens) (UniProt Q8TDX7). As to the kind of experiment: Inhibition of NEK7 (unknown origin) at 100 nM.
The target of data set [9] is Serine/threonine-protein kinase pim-1 (Homo sapiens) (UniProt P11309). Briefly: Inhibition of PIM1 (unknown origin) at 100 nM.
Data set [10] concerns the target Serine/threonine-protein kinase pim-2 (Homo sapiens) (UniProt Q9P1W9). As to the kind of experiment: Inhibition of PIM2 (unknown origin) at 100 nM.
Data set [11] has as its target Serine/threonine-protein kinase PLK2 (Homo sapiens) (UniProt Q9NYY3). Briefly: Inhibition of PLK2 (unknown origin) at 100 nM.
Data set [12] deals with Ribosomal protein S6 kinase alpha-2 (Homo sapiens) (UniProt Q15349). Briefly: Inhibition of RSK3 (unknown origin) at 100 nM.
In data set [13] the target is Proto-oncogene tyrosine-protein kinase ROS (Homo sapiens) (UniProt P08922). Briefly: Inhibition of ROS (unknown origin) at 100 nM.
Data set [14] addresses Sphingosine kinase 1 (Homo sapiens) (UniProt Q9NYA1). As to the kind of experiment: Inhibition of SPHK1 (unknown origin) at 100 nM.
The target of data set [15] is TGF-beta receptor type-1 (Homo sapiens) (UniProt P36897). Briefly: Inhibition of TGFBR1 (unknown origin) at 100 nM.
Data set [16] addresses Activated CDC42 kinase 1 (Homo sapiens) (UniProt Q07912). Briefly: Inhibition of TNK2 (unknown origin) at 100 nM.
The target of data set [17] is NT-3 growth factor receptor (Homo sapiens) (UniProt Q16288). Briefly: Inhibition of TRKC (unknown origin) at 100 nM.
The target in data set [18] is Serine/threonine-protein kinase 25 (Homo sapiens) (UniProt O00506). Briefly: Inhibition of YSK1 (unknown origin) at 100 nM.
Data set [19] addresses Mitogen-activated protein kinase 14 (Homo sapiens) (UniProt Q16539). Briefly: Inhibition of p38alpha (unknown origin) at 100 nM.
The target in data set [20] is Mitogen-activated protein kinase 13 (Homo sapiens) (UniProt O15264). Briefly: Inhibition of p38delta(unknown origin) at 100 nM.
In data set [21] the target is Activin receptor type-1 (Homo sapiens) (UniProt Q04771). As to the kind of experiment: Inhibition of ALK2 (unknown origin) at 100 nM.
The target in data set [22] is NUAK family SNF1-like kinase 1 (Homo sapiens) (UniProt O60285). Briefly: Inhibition of ARK5 (unknown origin) at 100 nM.
Data set [23] deals with Tyrosine-protein kinase ABL2 (Homo sapiens) (UniProt P42684). As to the kind of experiment: Inhibition of ARG (unknown origin) at 100 nM.
For data set [24], the target named is Calcium/calmodulin-dependent protein kinase kinase 2 (Homo sapiens) (UniProt Q96RR4). Briefly: Inhibition of CAMKK2 (unknown origin) at 100 nM.
The target in data set [25] is Cyclin-dependent kinase 1/cyclin B1 (Homo sapiens) (UniProt P06493+P14635). As to the kind of experiment: Inhibition of CDK1/cyclinB (unknown origin) at 100 nM. Format: protein-complex assay.
In data set [26] the target is Casein kinase I isoform gamma-2 (Homo sapiens) (UniProt P78368). Briefly: Inhibition of CK1gamma2 (unknown origin) at 100 nM.
Data set [27] concerns the target Dual specificity protein kinase CLK3 (Homo sapiens) (UniProt P49761). Briefly: Inhibition of CLK3 (unknown origin) at 100 nM.
The target of data set [28] is Dual specificity protein kinase CLK4 (Homo sapiens) (UniProt Q9HAZ1). Briefly: Inhibition of CLK4 (unknown origin) at 100 nM.
The target in data set [29] is Calcium/calmodulin-dependent protein kinase type II subunit alpha (Homo sapiens) (UniProt Q9UQM7). Briefly: Inhibition of CamKIIalpha (unknown origin) at 100 nM.
Data set [30] addresses Calcium/calmodulin-dependent protein kinase type IV (Homo sapiens) (UniProt Q16566). Briefly: Inhibition of CamKIV (unknown origin) at 100 nM.
Data set [31] has as its target Epithelial discoidin domain-containing receptor 1 (Homo sapiens) (UniProt Q08345). As to the kind of experiment: Inhibition of DDR1 (unknown origin) at 100 nM.
Data set [32] deals with Myotonin-protein kinase (Homo sapiens) (UniProt Q09013). As to the kind of experiment: Inhibition of DMPK (unknown origin) at 100 nM.
For data set [33], the target named is Dual specificity tyrosine-phosphorylation-regulated kinase 1A (Homo sapiens) (UniProt Q13627). As to the kind of experiment: Inhibition of DYRK1A (unknown origin) at 100 nM.
Data set [34] addresses Ephrin type-B receptor 1 (Homo sapiens) (UniProt P54762). Briefly: Inhibition of EPHB1 (unknown origin) at 100 nM.
For data set [35], the target named is Ephrin type-B receptor 2 (Homo sapiens) (UniProt P29323). Briefly: Inhibition of EPHB2 (unknown origin) at 100 nM.
Data set [36] concerns the target Fibroblast growth factor receptor 3 (Homo sapiens) (UniProt P22607). Briefly: Inhibition of FGFR3 (unknown origin) at 100 nM.
Data set [37] has as its system Fibroblast growth factor receptor 3 (Homo sapiens), P22607 [K650E]. As to the kind of experiment: Inhibition of FGFR3 K650E mutant (unknown origin) at 100 nM.
For data set [38], the target named is Tyrosine-protein kinase Fer (Homo sapiens) (UniProt P16591). As to the kind of experiment: Inhibition of FER (unknown origin) at 100 nM.
Data set [39] relates to Receptor-type tyrosine-protein kinase FLT3 (Homo sapiens), P36888 [D835Y]. As to the kind of experiment: Inhibition of FLT3 D835Y mutant (unknown origin) at 100 nM.
Data set [40] addresses Tyrosine-protein kinase HCK (Homo sapiens) (UniProt P08631). As to the kind of experiment: Inhibition of HCK (unknown origin) at 100 nM.
Data set [41] addresses Mitogen-activated protein kinase kinase kinase kinase 5 (Homo sapiens) (UniProt Q9Y4K4). Briefly: Inhibition of KHS1 (unknown origin) at 100 nM.
Data set [42] has as its target Proto-oncogene tyrosine-protein kinase Src (Homo sapiens) (UniProt P12931). Briefly: Inhibition of SRCN1 (unknown origin) at 100 nM.

SMILES strings stand for the structures.

Chain of Serine/threonine-protein kinase pim-2 (Homo sapiens) (Q9P1W9 whole entry, looked up): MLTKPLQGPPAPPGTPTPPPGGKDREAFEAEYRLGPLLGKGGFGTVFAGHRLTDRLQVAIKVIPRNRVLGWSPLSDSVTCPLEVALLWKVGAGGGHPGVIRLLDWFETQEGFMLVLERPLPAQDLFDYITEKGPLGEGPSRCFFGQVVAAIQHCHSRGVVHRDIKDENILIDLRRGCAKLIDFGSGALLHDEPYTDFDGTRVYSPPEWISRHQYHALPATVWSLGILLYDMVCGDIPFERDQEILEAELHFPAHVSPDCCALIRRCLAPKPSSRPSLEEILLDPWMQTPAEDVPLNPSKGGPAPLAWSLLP
Chain of Ribosomal protein S6 kinase alpha-2 (Homo sapiens) (Q15349 whole entry): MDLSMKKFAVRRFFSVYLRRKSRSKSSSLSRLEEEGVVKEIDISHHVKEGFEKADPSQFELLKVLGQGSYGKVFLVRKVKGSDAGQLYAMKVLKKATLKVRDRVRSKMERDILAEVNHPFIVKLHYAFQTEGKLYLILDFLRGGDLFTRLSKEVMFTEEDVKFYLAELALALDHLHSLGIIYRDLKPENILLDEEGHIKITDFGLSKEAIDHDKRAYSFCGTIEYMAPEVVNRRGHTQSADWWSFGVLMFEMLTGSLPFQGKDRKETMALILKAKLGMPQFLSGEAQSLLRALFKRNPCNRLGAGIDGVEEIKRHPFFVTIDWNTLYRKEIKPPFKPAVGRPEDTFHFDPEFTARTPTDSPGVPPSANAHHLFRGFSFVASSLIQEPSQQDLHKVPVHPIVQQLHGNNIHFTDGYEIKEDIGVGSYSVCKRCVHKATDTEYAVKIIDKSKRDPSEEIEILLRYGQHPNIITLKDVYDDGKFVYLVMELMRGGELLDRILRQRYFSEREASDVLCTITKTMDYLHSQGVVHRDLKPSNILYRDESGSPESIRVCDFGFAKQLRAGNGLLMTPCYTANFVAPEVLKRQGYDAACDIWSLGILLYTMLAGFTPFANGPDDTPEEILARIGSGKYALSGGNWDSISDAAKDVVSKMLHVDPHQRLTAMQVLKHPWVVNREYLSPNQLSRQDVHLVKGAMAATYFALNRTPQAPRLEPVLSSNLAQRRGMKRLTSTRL
Chain of Sphingosine kinase 1 (Homo sapiens) (Q9NYA1 whole entry): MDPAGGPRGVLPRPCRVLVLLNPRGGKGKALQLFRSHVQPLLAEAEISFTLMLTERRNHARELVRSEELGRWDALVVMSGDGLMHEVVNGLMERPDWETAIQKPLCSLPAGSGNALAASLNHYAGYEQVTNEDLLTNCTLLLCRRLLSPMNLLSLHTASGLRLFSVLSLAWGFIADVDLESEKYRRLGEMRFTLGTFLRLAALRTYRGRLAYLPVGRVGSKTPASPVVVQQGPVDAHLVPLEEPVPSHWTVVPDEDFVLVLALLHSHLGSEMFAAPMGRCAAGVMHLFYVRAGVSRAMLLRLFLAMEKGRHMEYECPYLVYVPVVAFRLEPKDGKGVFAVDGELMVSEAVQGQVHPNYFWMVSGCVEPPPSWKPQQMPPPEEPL
Chain of Proto-oncogene tyrosine-protein kinase Src (Homo sapiens) (P12931 whole entry, looked up): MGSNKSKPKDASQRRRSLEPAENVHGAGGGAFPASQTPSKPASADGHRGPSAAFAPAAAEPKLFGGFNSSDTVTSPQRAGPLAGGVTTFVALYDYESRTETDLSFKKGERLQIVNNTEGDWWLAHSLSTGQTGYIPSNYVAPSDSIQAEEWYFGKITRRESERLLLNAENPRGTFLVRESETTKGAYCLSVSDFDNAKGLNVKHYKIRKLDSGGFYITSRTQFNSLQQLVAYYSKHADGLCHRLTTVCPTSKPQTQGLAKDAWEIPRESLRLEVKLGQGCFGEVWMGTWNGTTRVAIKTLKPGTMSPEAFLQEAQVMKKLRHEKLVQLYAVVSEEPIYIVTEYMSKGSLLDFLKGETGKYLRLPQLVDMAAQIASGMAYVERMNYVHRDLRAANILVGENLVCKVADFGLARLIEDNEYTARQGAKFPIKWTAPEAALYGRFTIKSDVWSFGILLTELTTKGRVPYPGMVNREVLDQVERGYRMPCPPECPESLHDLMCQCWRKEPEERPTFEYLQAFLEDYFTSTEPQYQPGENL
Chain of NT-3 growth factor receptor (Homo sapiens) (Q16288 32-839 limits assumed): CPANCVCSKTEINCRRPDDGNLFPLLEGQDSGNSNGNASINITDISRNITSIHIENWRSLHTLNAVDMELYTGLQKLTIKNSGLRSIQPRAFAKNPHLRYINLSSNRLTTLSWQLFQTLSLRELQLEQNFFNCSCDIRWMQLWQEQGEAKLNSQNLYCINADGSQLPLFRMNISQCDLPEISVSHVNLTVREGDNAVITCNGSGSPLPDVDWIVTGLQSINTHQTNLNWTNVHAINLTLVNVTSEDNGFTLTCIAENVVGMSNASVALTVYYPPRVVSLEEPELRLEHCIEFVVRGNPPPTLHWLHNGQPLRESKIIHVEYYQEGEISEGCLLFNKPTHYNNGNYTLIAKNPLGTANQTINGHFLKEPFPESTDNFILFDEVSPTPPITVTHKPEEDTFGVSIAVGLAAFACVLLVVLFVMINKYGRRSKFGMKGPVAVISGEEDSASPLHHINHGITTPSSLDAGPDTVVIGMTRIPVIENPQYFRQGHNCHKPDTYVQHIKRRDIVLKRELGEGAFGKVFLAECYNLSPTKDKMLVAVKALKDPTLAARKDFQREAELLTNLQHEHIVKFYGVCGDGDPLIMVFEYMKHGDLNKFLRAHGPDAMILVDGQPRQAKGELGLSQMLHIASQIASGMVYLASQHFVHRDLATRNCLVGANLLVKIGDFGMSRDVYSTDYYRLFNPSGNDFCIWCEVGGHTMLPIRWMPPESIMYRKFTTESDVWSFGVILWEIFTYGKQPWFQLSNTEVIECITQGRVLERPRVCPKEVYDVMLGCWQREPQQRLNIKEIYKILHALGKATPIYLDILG
Chain of Serine/threonine-protein kinase pim-1 (Homo sapiens) (P11309 whole entry, looked up): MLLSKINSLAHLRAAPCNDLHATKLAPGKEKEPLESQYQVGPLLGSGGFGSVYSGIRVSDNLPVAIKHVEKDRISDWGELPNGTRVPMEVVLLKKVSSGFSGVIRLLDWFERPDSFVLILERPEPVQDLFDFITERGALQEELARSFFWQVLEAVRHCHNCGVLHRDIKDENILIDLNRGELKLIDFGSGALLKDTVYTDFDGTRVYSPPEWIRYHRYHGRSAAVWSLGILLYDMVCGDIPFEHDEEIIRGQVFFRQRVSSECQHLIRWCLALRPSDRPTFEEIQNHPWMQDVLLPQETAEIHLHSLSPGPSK
Chain of Serine/threonine-protein kinase 24 (Homo sapiens) (Q9Y6E0 whole entry, looked up): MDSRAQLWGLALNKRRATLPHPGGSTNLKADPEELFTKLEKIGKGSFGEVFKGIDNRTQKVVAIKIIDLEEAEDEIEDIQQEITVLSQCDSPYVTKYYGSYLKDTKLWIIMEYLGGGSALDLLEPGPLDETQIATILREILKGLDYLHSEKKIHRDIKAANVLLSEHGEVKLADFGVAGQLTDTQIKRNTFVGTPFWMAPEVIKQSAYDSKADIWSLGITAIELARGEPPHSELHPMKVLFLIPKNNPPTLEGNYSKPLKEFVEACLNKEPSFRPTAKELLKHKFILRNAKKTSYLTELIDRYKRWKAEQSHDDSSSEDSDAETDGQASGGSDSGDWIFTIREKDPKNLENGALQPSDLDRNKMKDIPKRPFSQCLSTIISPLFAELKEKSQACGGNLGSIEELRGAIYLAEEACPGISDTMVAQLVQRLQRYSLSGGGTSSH
Chain of Serine/threonine-protein kinase 4 (Homo sapiens) (Q13043 whole entry): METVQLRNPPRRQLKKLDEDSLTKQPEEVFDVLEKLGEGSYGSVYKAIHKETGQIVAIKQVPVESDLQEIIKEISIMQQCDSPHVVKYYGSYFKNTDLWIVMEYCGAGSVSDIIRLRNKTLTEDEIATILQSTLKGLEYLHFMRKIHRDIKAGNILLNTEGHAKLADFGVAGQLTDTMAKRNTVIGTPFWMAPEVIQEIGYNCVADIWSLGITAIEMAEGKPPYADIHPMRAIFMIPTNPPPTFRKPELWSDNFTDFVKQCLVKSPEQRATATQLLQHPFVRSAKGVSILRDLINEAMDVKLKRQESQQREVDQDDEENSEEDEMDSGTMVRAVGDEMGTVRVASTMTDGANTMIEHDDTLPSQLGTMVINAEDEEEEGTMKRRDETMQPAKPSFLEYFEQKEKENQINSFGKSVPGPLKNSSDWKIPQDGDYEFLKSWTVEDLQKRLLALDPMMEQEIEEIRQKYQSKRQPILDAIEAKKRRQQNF
Chain of Tyrosine-protein kinase Fer (Homo sapiens) (P16591 whole entry, looked up): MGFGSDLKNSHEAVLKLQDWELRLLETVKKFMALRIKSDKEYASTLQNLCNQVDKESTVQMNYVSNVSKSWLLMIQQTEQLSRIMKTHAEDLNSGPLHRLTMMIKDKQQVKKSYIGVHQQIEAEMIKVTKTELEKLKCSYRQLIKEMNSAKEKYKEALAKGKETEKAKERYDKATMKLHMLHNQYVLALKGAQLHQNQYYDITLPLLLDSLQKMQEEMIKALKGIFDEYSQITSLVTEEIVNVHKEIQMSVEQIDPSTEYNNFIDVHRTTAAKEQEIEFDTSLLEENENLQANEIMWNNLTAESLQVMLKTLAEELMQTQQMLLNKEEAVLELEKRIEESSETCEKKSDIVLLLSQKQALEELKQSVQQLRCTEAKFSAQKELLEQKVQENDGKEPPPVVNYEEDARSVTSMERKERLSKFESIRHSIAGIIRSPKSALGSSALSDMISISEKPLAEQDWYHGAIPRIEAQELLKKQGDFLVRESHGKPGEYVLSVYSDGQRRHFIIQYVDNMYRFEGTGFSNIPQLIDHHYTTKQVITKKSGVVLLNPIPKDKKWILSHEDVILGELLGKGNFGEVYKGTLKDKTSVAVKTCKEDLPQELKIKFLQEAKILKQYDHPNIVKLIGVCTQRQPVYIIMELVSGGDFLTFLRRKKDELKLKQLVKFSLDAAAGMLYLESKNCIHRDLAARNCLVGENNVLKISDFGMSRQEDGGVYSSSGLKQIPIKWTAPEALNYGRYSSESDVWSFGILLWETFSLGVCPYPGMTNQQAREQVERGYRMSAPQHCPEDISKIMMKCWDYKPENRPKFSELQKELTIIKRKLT

For `CC1(C)OCc2c(Nc3n[nH]c4c(Cl)cccc34)nc(-c3cn[nH]c3)nc21`, in the data set on Hepatocyte, the Drug metabolism entry is “metabolite_detected”.

With `CC1(C)OCc2c(Nc3n[nH]c4ccccc34)nc(-c3cn[nH]c3)nc21`, the inhibition in [1] is 89.4%; in [2], 51.3%; in [3], -1.8%; in data set [4], -0.9%; in [5] it was 13.1%; in data set [6], 0.8%. The inhibition in data set [7] is 9.9%; in data set [8] it was 8.4%; in data set [9] it was -7.1%; in [10], 3.1%; in [11], 5.5%; in data set [12], 7.4%. Further, the inhibition turned out to be 11.4% in data set [13]; 0% in [14]; 97.9% in data set [15]; 7.8% in data set [16]; 14.5% in [17]; 5.1% in data set [18]. The inhibition in data set [19] came to 44.5%; in data set [20] it was 8.6%; in [21] it was 30.3%; in data set [22] it was 11.6%; in data set [23], 69.5%; in data set [24] it was 1.8%. Also, the inhibition is -3.1% in data set [25]; 3.5% in [26]; 3.3% in data set [27]; 13.3% in [28]; -0.1% in [29]; 15% in data set [30]. Also, the inhibition in data set [31] amounted to 52.6%; in [32], 3.3%; in [33], 9.6%; in data set [34], 22%; in [35], 15.3%; in data set [36] it was 18.4%. Moreover, the inhibition in data set [37] is 38.8%; in [38] it was 6.9%; in data set [39], 24.8%; in [40] it was 65.6%; in [41], 12.7%; in [42], 47.2%.
